{"source": "patent US10640802B2", "about": "(priority 2012, dated 2020)", "key": {"[1]": {"test_system": "wild type AfArsR", "type": "binding, Acidithiobacillus ferrooxidans"}, "[2]": {"test_system": "C102S biosensor co-cultured with Burkholderia sp. MR1", "type": "cell-based, E. coli / Burkholderia sp. MR1"}, "[3]": {"test_system": "C102S mutant biosensor (E. coli strain AW3110)", "type": "cell-based"}, "[4]": {"test_system": "AfarsR-gfp biosensor (E. coli strain AW3110 bearing pBADarsR and pACYC184-parsO-gfp)", "type": "cell-based"}, "[5]": {"target": "T1, Acidithiobacillus ferrooxidans AfArsR variant C102S (Cys102 to serine) (Acidithiobacillus ferrooxidans, UniProt B7J952, C102S)", "T1 sequence (B7J952 1-118 C102S)": "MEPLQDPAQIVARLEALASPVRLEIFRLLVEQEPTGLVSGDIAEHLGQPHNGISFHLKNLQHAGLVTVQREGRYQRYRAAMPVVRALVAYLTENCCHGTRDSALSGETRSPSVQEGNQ", "settings": "previously observed; cited from earlier work"}, "[6]": {"test_system": "Acidithiobacillus ferrooxidans AfArsR variant C102S (Cys102 eliminated by mutation; pBADarsR / parsO-gfp biosensor in E. coli AW3110)", "type": "cell-based"}, "[7]": {"target": "T1, Acidithiobacillus ferrooxidans AfArsR variant C102S (Cys102 to serine)", "type": "biochemical"}, "[8]": {"target": "Acidithiobacillus ferrooxidans AfArsR repressor, wild type (Acidithiobacillus ferrooxidans, UniProt B7J952)", "sequence (B7J952 1-118)": "as the sequence (B7J952 1-118 C102S) above, with S102C counted along it", "type": "biochemical", "settings": "pH 7.5"}, "[9]": {"test_system": "E. coli AW3110 biosensor cells"}, "[10]": {"test_system": "Acidithiobacillus ferrooxidans AfArsR, wild type (pBADarsR / pACYC184-parsO-gfp biosensor in E. coli AW3110)", "type": "cell-based"}, "[11]": {"test_system": "AfArsR C102S mutant", "type": "binding, Acidithiobacillus ferrooxidans"}, "[12]": {"settings": "read-out: apparent half maximal concentration required for induction"}}, "note": "“Also recorded” adds a separate entry of the source. Read-outs that look alike come from different tables or passages of the source.", "data": [{"molecule": "arsenate [As(V)]", "values": [{"measurement": "effect on anisotropy of the AfArsR-DNA complex", "setting": "[1]", "result": "no effect"}]}, {"molecule": "O=[N+]([O-])c1cc([As](=O)(O)O)ccc1O", "note": "[Rox(V), 3-nitro-4-hydroxybenzenearsonic acid]", "values": [{"measurement": "response of biosensor co-cultured with Burkholderia", "setting": "[2]", "result": "didn't respond; also recorded: didn't show fluorescent"}, {"measurement": "biosensor response (gfp derepression)", "setting": "[3]", "result": "unresponsive"}, {"measurement": "biosensor response (gfp derepression)", "setting": "[4]", "result": "unresponsive"}]}, {"molecule": "O[As](O)O", "note": "[As(III), arsenite]", "values": [{"measurement": "reduction of affinity by substitution of Cys102 with serine", "setting": "[5]", "result": "nearly an order of magnitude"}, {"measurement": "induction / derepression of gfp expression", "setting": "[6]", "result": "not responsive; also recorded: did not respond"}, {"measurement": "response to As(III)", "setting": "[6]", "result": "no response"}, {"measurement": "binding / recognition by C102S", "setting": "[7]", "result": "lack of binding; also recorded: no longer recognizes; also recorded: lost its binding ability"}, {"measurement": "response (anisotropy)", "setting": "[7]", "result": "little response"}, {"measurement": "EC50", "setting": "[8]; read-out: concentration required to decrease anisotropy of AfArsR-DNA complex (half-maximal)", "result": "~10", "unit": "µM"}, {"measurement": "EC50", "setting": "[8]; read-out: half-maximal concentration decreasing anisotropy of AfArsR-DNA complex", "result": "~10", "unit": "µM"}, {"measurement": "decrease in cellular fluorescence and growth", "setting": "[9]", "result": "≥ 40", "unit": "pM"}, {"measurement": "concentrations sensed by the original biosensor", "setting": "[10]", "result": "micromolar concentrations"}, {"measurement": "induction / derepression of gfp expression", "setting": "[10]", "result": "derepressed gfp expression; also recorded: dissociated AfArsR from pars, derepressing gfp expression; also recorded: induced gfp expression"}, {"measurement": "linear response around concentration", "setting": "[10]", "result": "~10", "unit": "ppb"}, {"measurement": "response of the biosensor", "setting": "[10]", "result": "practically no response"}]}, {"molecule": "Sb(III) [listing 1 of 2 here]", "values": [{"measurement": "induction of gfp expression", "setting": "[4]", "result": "induced gfp expression"}]}, {"molecule": "O=[As](O)(O)c1ccccc1", "note": "[PAA, phenylarsonic acid]", "values": [{"measurement": "response of biosensor co-cultured with Burkholderia", "setting": "[2]", "result": "didn't respond"}]}, {"molecule": "C[As](O)O", "note": "[MAs(III), methylarsenite]", "values": [{"measurement": "induction / derepression of gfp expression", "setting": "[6]", "result": "proportional to the concentration of the inducer; also recorded: high levels of fluorescence"}, {"measurement": "EC50", "setting": "[6]; read-out: apparent half maximal concentration for induction", "result": "~3", "unit": "µM"}, {"measurement": "binding / recognition by C102S", "setting": "[7]", "result": "still senses; also recorded: same binding affinity"}, {"measurement": "response (anisotropy), concentration range", "setting": "[7]", "result": "sub-micromolar range"}, {"measurement": "response to MAs(III), Rox(III) and PhAs(III) relative to wild type", "setting": "[7]", "result": "slightly higher than the wild type"}, {"measurement": "toxic at concentrations in excess of", "setting": "[9]", "result": "> 10^−5 M"}, {"measurement": "induction / derepression of gfp expression", "setting": "[10]", "result": "proportional to the concentration of the inducer; also recorded: induced gfp expression"}, {"measurement": "EC50", "setting": "[10]; [12]", "result": "~3", "unit": "µM"}]}, {"molecule": "arsenite [As(III)]", "values": [{"measurement": "biosensor response (gfp derepression)", "setting": "[3]", "result": "did not respond"}, {"measurement": "response of Cys102-lacking biosensor", "setting": "[3]", "result": "no response"}, {"measurement": "response of mutant biosensor", "setting": "[3]", "result": "no response"}, {"measurement": "response to addition of arsenite", "setting": "[3]", "result": "not responsive"}, {"measurement": "EC50", "setting": "[1]; read-out: half-maximal concentration for decrease of anisotropy", "result": "~10", "unit": "µM"}, {"measurement": "biosensor response", "setting": "[4]", "result": "practically no response"}, {"measurement": "biosensor response (gfp derepression)", "setting": "[4]", "result": "induced"}, {"measurement": "concentration around which the response is linear", "setting": "[4]", "result": "~10", "unit": "ppb"}, {"measurement": "gfp expression upon addition of arsenite", "setting": "[4]", "result": "derepressed gfp expression; also recorded: derepressing gfp expression"}, {"measurement": "induction of gfp expression", "setting": "[4]", "result": "induced gfp expression"}, {"measurement": "EC50", "setting": "[4]; [12]", "result": "~10", "unit": "µM"}, {"measurement": "binding by purified AfArsR C102S mutant", "setting": "[11]", "result": "lost its binding ability"}, {"measurement": "response of C102S AfArsR (anisotropy)", "setting": "[11]", "result": "little response"}]}, {"molecule": "Sb(III) [listing 2 of 2 here]", "values": [{"measurement": "induction / derepression of gfp expression", "setting": "[10]", "result": "induced gfp expression"}]}]}
